How the values were obtained:
α1 receptors = assay: Receptor binding assay, [3H]prazosin, human cerebral cortex (HCC) membranes; conditions: 22°C, 30 minutes, read-out: Ki (nM) α1 human brain
Protocol: Tissue preparation: Membrane suspensions were prepared from human cerebral cortex (HCC, for α1 receptors) obtained from the UCI Organ and Tissue Bank. Briefly, tissues (1g) were homogenized in 25 mL of ice-cold 5 mM tris, pH 7.4 with a Polytron homogenizer for 30 sec at setting #7, and centrifuged for 10-12 minutes at 300 x g a 4°C. The supernatant was filtered through 2 layers of gauze and diluted 1:2 with 50 mM Tris-HCl buffer, pH 7.4, then centrifuged at 49,000 x g for 20 minutes. The pellet fraction was washed 3 times (resuspended in Tris-HCl buffer and centrifuged for 20 minutes at 49,000 x g). The pellet was then stored at -80°C until the binding assay.
Binding Studies: The radioligands [^3H]rauwolscine (specific activity 80 Ci/mmol) and [^3H]prazosin (specific activity 76 Ci/mmol) were obtained from New England Nuclear, Boston, MA. Frozen membrane pellet was resuspended in 25 mM glycine/glycine, pH 7.5 and incubated with radioligand under the following conditions: CHO-C10, CHO-RNG, CHO-C4-[^3H]rauwolscine, 22°C, 30 minutes; RKC-[^3H]rauwolscine, 0°C, 120 minutes; and, HCC-[^3H]prazosin, 22°C, 30 minutes in a final volume of 500 ul. At the end of the incubation period, the samples were filtered through glass filters (Whatman GF/B) in a 96 well cell harvester and rapidly washed four times with 4 mL of iced-cold 50 mM Tris-HCl buffer. The filters were then oven dried and transferred to scintillation vials containing 10 mL of Beckman's Ready Protein® scintillation cocktail for counting. Specific binding defined by 10 uM phentolamine for competition studies were as follows: 2.4 nM [^3H]brimonidine-RbICB 62%; 2.4 nM [^3H]rauwolscine-RbICB 75%; 2 nM [^3H]rauwolscine-RbKc 88%; 0.3 nM [^3H] rauwolscine-CHO-C10 99%; 0.4 nM [^3H]rauwolscine-CHO-RNG 99%, 0.3 nM [^3H]prazosin 87%; and 1 nM [^3H]rauwolscine-CHO-C4 90%. Protein concentrations were determined with a protein assay kit from Bio Rad. Binding isotherms, equilibrium dissociation and affinity constants were analyzed and determined by the non-linear least squares curve fitting programs EBDA (BioSoft) or AccuFit Competition/Saturation by Beckman.
The radioligands [^3H)rauwolscine (specific activity 80 Ci/mmol) and [^3H]prazosin (specific activity 76 Ci/mmol) were obtained from New England Nuclear, Boston, MA. Frozen membrane pellet was resuspended in 25 mM glycine/glycine, pH 7.4 and incubated with radioligand under the following conditions: CHO-C10, CHO-RNG, CHO-C4-[^3H]rauwolscine, 22°C, 30 min.; and, HCC-[^3H]prazosin, 22°C, 30 minutes in a final volume of 500 ul. At the end of the incubation period, the samples were filtered through glass fiber filters (Whatman GF/B) in a 96 well cell harvester and rapidly washed four times with 4 mL of iced-cold 50 mM Tris-CHl buffer. The filters were then oven dried and transferred to scintillation vials containing 5 mL of Beckman's Ready Protein® scintillation cocktail for counting. Specific binding defined by 10 uM phentolamine for competition studies were as follows: 0.3 nM[^3H] rauwolscine-CHO-C10 99%; 0.4 nM [^3H]rauwolscine-CHO-RNG 99%, and 0.3 nM [^3H] prazosin-HCC 87%. Protein concentrations were determined with a protein assay kit from Bio Rad. Binding isotherms, equilibrium dissociation and affinity constants were analyzed and determined by the non-linear least squares curve fitting programs AccuFit Competition/Saturation by Beckman.

human α2A = target: T1, human α2A (Homo sapiens, UniProt P08913); assay: Receptor binding assay, [3H]rauwolscine, CHO-C10 cell membranes; conditions: 22°C, 30 minutes
T1 construct: expressed in transfected cells; host or cells: CHO (CHO-C10)
T1 sequence (P08913 1-465): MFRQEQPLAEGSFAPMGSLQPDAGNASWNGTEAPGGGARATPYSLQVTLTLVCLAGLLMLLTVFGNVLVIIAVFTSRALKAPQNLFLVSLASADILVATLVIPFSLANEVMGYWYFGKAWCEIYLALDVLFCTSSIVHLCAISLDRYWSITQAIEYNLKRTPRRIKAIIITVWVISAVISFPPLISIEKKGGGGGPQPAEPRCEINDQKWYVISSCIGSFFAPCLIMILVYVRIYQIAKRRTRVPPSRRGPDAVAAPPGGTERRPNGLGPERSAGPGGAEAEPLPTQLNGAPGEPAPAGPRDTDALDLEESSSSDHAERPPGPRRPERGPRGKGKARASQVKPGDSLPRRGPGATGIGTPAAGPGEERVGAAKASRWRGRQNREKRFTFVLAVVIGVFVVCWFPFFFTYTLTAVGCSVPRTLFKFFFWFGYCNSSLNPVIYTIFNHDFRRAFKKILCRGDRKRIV
Protocol: Cell preparation: […] Cells were harvested by scraping and placed into cold buffer of the following composition: 50 mM Tris-HCl, 5 mM EDTA, pH 7.4). Cells were then homogenized with a Polytron homogenizer for 2 X 10 sec at setting #7, and centrifuged for 20 minutes at 49,000 x g. The pellet fraction was washed (resuspended in Tris-HCl, pH 8 buffer and centrifuged for 15-20 minutes at 49,000 x g) 2 times and stored at -100°C until binding assay. Binding Studies: […] Frozen membrane pellet was resuspended in 25 mM glycine/glycine, pH 7.5 and incubated with radioligand under the following conditions: […] RKC-[^3H]rauwolscine, 0°C, 120 minutes; and, HCC-[^3H]prazosin, 22°C, 30 minutes in a final volume of 500 ul. At the end of the incubation period, the samples were filtered through glass filters (Whatman GF/B) in a 96 well cell harvester and rapidly washed four times with 4 mL of iced-cold 50 mM Tris-HCl buffer. The filters were then oven dried and transferred to scintillation vials containing 10 mL of Beckman's Ready Protein® scintillation cocktail for counting. […] Protein concentrations were determined with a protein assay kit from Bio Rad. Binding isotherms, equilibrium dissociation and affinity constants were analyzed and determined by the non-linear least squares curve fitting programs EBDA (BioSoft) or AccuFit Competition/Saturation by Beckman. Cell preparation: […] Cells were harvested by scraping and placed into cold buffer of the following composition: 50 mM Tris-HCl, 5 mM EDTA, pH 7.4). Cells were then homogenized with a Polytron homogenizer for 2 X 10 sec at setting #7, and centrifuged for 20 minutes at 49,000 x g. The pellet fraction was washed (resuspended in Tris-HCl, pH 8 buffer and centrifuged for 15-20 minutes at 49,000 x g) 2 times and stored at -100°C until binding assay. […] Frozen membrane pellet was resuspended in 25 mM glycine/glycine, pH 7.4 and incubated with radioligand under the following conditions: […] At the end of the incubation period, the samples were filtered through glass fiber filters (Whatman GF/B) in a 96 well cell harvester and rapidly washed four times with 4 mL of iced-cold 50 mM Tris-CHl buffer. The filters were then oven dried and transferred to scintillation vials containing 5 mL of Beckman's Ready Protein® scintillation cocktail for counting. […] Protein concentrations were determined with a protein assay kit from Bio Rad. Binding isotherms, equilibrium dissociation and affinity constants were analyzed and determined by the non-linear least squares curve fitting programs AccuFit Competition/Saturation by Beckman.

SMILES	Ki (α1 receptors)	Ki (human α2A)
Cc1c(Nc2ncc[nH]2)ccc2c1NCCO2	14800 nM	6.3 nM
Cc1c(Nc2ncc[nH]2)ccc2c1OCCO2	2150 nM	1.7 nM
Brc1c(Nc2ncc[nH]2)ccc2nccnc12	100000 nM	512 nM
Cc1c(Nc2ncc[nH]2)ccc2nccnc12	30600 nM	31 nM
COc1ccc(Nc2ncc[nH]2)c(C)c1	7610 nM	10 nM

Other lines, results leading:

Ki (α1 receptors)	Ki (human α2A)	SMILES
10600 nM	73 nM	Cc1ccccc1Nc1ncc[nH]1
23200 nM	287 nM	Clc1ccccc1Nc1ncc[nH]1
5940 nM	95 nM	Clc1cccc(Cl)c1Nc1ncc[nH]1
4980 nM	39 nM	c1cc2c(c(Nc3ncc[nH]3)c1)CCCC2
67500 nM	394 nM	c1ccc(Nc2ncc[nH]2)cc1
9980 nM	214 nM	Brc1ccccc1Nc1ncc[nH]1

From patent EP0741709B1, “AROMATIC 2-AMINO-IMIDAZOLE DERIVATIVES AS ALPHA-2A ADRENOCEPTOR AGONISTS” (Allergan Sales, Inc., priority 1994, dated 1995)
